Results reported in patent publication US9687438B2, “Method for enhancing collagen secretion and preventing cutaneous aging using chenopodium formosanum extract” (TCI Co., Ltd., priority 2014, dated 2017).

Columns and labels:
porcine collagen [1] = experiment: Early glycation product (fructosamine) formation; type: biochemical; details: versus untreated glycated collagen control
Experimental: (§1) In order to evaluate the ability to prevent glycation of collagen of the Chenopodium formosanum extract, firstly, porcine collagen (60 mg/mL) and fructose (1.5 M) were respectively prepared in 0.2 M potassium phosphate buffer (pH 7.4, containing 0.06% sodium azide). For each reaction of glycation, 100 μL of porcine collagen, 100 μL of fructose solution, and 100 μL of deionized water were deposited in a 1.5 mL microfuge tube. After incubation, the reacted solutions were stored frozen at −20° C. For determination of collagen-fructose glycation, a glycation inhibitor of aminoguanidine (AG) (Sigma) was used. 100 μL of 3 mM AG solution (prepared in deionized water) was introduced in substitution of the deionized water in each of the reactions described above containing collagen and fructose. Meanwhile, different concentrations of the whole grain (un-dehulled) Chenopodium formosanum extract were also prepared and introduced to the reactions describe above. For determination of the intensity, 100 μL of each reacted solution was withdrawn to a well of a 96-well plate and subjected to intensity determination by a spectrofluorometer (FLx 800, BioTek, Winooski, Vt.) set at 360 nm of excitation and 460 nm of emission.
Amadori product such as fructosamine is formed at the early stage of glycation. […]

porcine collagen [2] = experiment: Intermediate glycation product (α-dicarbonyl compounds) formation; type: biochemical; details: versus untreated glycated collagen control
Experimental: as §1
Along the glycation process, amadori product is transformed into intermediate-product such as α-dicarbonyl compounds. […]

N=C(N)NN [aminoguanidine]
reduction of relative fructosamine formation (porcine collagen [1]): about 8%
reduction of relative α-dicarbonyl compounds formation (porcine collagen [2]): practically incapable of suppressing the formation of α-dicarbonyl compounds
